The source of these data is patent US11260048B2, “Compounds and compositions for inhibiting retinal pigment epithelium degeneration and methods using the same” (The Schepens Eye Research Institute, Inc., priority 2017, dated 2022).

Structures are written as SMILES. Entries after “also recorded” stand apart in the source; their conditions may differ. Some results are limits rather than exact numbers.

The subject of experiment [1] is ARPE-19 cells. Put plainly: RPE protection assay: ox-LDL-induced cell death, LDH release. It is filed as cell-based, Human. The settings on record: for cytotoxicity at 0.43 µM: compound 0.43 μM; for cytotoxicity at 1.4 µM: compound 1.4 μM; for cytotoxicity at 4.3 µM: compound 4.3 μM; for relative RPE protective activity compared with other compounds: ox-LDL 200 μg/ml (FIGS. 5, 7); for protective effect against ox-LDL-induced RPE cell death: high dose 10.4 μM. As to the method: FIG. 2 is a graph showing dose-dependent inhibition of ox-LDL-induced RPE death by trolox. […] Data=mean±standard error of the mean (SEM), non-linear regression (GraphPad Prism 6).
FIGS. 5B and 5C are graphs showing RPE protection by selective anti-oxidants with a hindered phenol group. ARPE-19 cells were treated with ox-LDL (200 μg/ml) with and without different concentrations of various anti-oxidants. Cell death was measured by LDH release assay. Data=mean±SEM, *P<0.05, ***P<0.001 compared to ox-LDL group, ANOVA.
FIG. 6 is a graph comparing RPE protection activity of hindered phenol-containing 2,2,5,7,8-pentamethyl-6-chromanol (PMC) and selective inhibitors of nucleotide-binding domain, leucine-rich-containing family, pyrin domain-containing-3 (NLRP3) inflammasome activation. ARPE-19 cells were treated with ox-LDL (200 μg/ml) with and without different concentrations of PMC and selective inhibitors of NLRP3 inflammasome activation, MCC950 and isoliquiritigenin. Cell death was measured by LDH release assay. Data=mean±SEM, ***P<0.001 compared to ox-LDL group, ANOVA.
FIGS. 7B and 7C are graphs that show RPE protection by different experimental analogs of trolox and BHT. ARPE-19 cells were treated with ox-LDL (200 μg/ml) with and without different concentrations of the different analogs of trolox and BHT for 48 hours, cell death was determined by LDH assay. Note that many of the compounds were able to suppress ox-LDL-induced cell death similar to PMC. Data=mean±SEM, *P<0.05, ***P<0.001 compared to ox-LDL group, ANOVA.
ARPE-19 cells: Human ARPE-19 cells (ATCC, Manassas, Va.) were propagated as described previously (Tseng, W. A., et al., Invest Ophthalmol Vis Sci, 2013. 54(1): p. 110-20). Cells were cultured in DMEMIF12 medium (Lonza, Walkersville, Md.) supplemented with 10% fetal bovine serum (FBS) (Atlanta Biologicals, Lawrenceville, Ga.), 2 mM L-glutamine (Lonza), and 100 U/ml penicillin−100 μg/ml streptomycin (Lonza) (complete media), and passaged at a ratio of 1:2 to 1:4 using trypsin-versene (Lonza). Prior to experiments, cells were maintained in 1% FBS medium for about 3 weeks to obtain ARPE-19 cells with differentiated phenotypes. The transepithelial electrical resistance (TER) of each batch of ARPE-19 cells was measured in cells cultured on laminin-coated 0.4 μm-pore transwell membranes (Corning, Mass.) to ensure it was at least 50 ohm·cm2 (EVOM2 Voltohmmeter, World Precision Instruments, Inc., Sarasota, Fla.) before the cells were used for experiments.
ARPE-19 cells were treated with ox-LDL (200 μg/ml) with and without different concentrations of the selected analogs for 48 hours, cell death was determined by LDH assay.
On the technique in general: Release of lactate dehydrogenase indicates damage to the cell membrane.

The test system of experiment [2] is ARPE-19 cells. Put plainly: Lysosomal integrity, LysoTracker staining. Format: cell-based, Human. As to the method:
FIG. 3 is a graph showing that trolox dose-dependently suppresses ox-LDL-induced lysosomal destabilization in RPE. ARPE-19 cells were treated with ox-LDL with and without different concentrations of trolox for 36 hours. Lysosomal integrity was determined by LysoTracker staining (ThermoFisher Scientific), followed by image analysis to quantify the number of intact lysosomes per cell. […] Data=mean±SEM, *P<0.05, **P<0.01, ***P<0.001 compared to ox-LDL group, analysis of variance (ANOVA).
(§1) Lysosomal integrity and NF-κB activation: ARPE-19 cells were treated with ox-LDL with and without different concentrations of trolox for 36 hours. Lysosomal integrity was determined by LysoTracker staining (ThermoFisher Scientific), followed by image analysis to quantify the number of intact lysosomes per cell. […] Antibody specific for NF-κB p65 (Cell Signaling, Danvers, Mass.) was used for the immunostaining.

The test system of experiment [3] is NF-κB. The experiment is described as follows: NF-κB activation, nuclear translocation of NF-κB p65 by immunostaining. The note with it: ox-LDL 200 μg/ml, trolox 10.4 μM, 36 hours (FIG. 4). It is filed as cell-based, Human. As to the method: as §1
Experiment [4] has as its system ARPE-19 cells. The experiment is described as follows: ox-LDL-induced ROS formation, ROS-ID Total ROS detection kit. The note with it: ox-LDL 200 μg/ml, 28 hours (FIG. 1).
Where [5] appears, read: Homo sapiens, ARPE-19, ox-LDL 200 μg/ml, 48 hours, LDH assay, read-out: Protective activity against 200 μg/ml ox-LDL (% cell death, compound concentration).

As for `CCc1cc(CN(C)C(=O)C2(C)CCc3c(C)c(O)c(C)c(C)c3O2)on1` (centres unmarked) [P], in experiment [1] (Homo sapiens, compound 0.14 μM, ARPE-19, ox-LDL 200 μg/ml, 48 hours, LDH assay, read-out: Protective activity against 200 μg/ml ox-LDL (% cell death, compound concentration)), the cytotoxicity at 0.14 µM is approximately 60%. In experiment [1] (setting [5]), the cytotoxicity at 0.43 µM is less than 10%.
Consider `Cc1c(C)c2c(c(C)c1O)CCC(C)(C(=O)N(C)CCCn1cccn1)O2` (centres unmarked) [Y], for which, in experiment [1] (setting [5]), the cytotoxicity at 1.4 µM is approximately 22% and the cytotoxicity at 4.3 µM is less than 21%.
Usually EC50 stands for the concentration giving half of the maximal effect. Turning to `Cc1c(C)c2c(c(C)c1O)CCC(C)(C(=O)O)O2` (centres unmarked) [trolox], the “lysosomal integrity upon ox-LDL treatment” value in experiment [2] (ARPE-19, 36 hours (FIG. 3)) was “preserved lysosomal integrity”. Also, in experiment [2] (trolox 10.4 μM in the presence of ox-LDL, 36 hours), the “number of intact lysosomes per cell” value is given as “higher number of intact lysosomes per cell compared to control”. Further, the “NF-κB activation upon ox-LDL treatment” value in experiment [3] is recorded as “suppressed pro-inflammatory transcription factor NF-κB activation”. Further, the “ox-LDL-induced ROS formation in RPE cells” value in experiment [4] was “suppressed ROS formation”. Besides, in experiment [1] (Homo sapiens, ARPE-19, ox-LDL 200 μg/ml, 48 hours, trolox 0.65-10.4 μM, LDH release (FIG. 2), read-out: estimated EC50, suppression of ox-LDL-induced RPE death), the concentration giving a half-maximal response (EC50) is approximately 5.4 µM. Besides, the “relative RPE protective activity compared with other compounds” value in experiment [1] is “significantly more effective”.
Turning to `Cc1c(C)c2c(c(C)c1O)CCC(C)(C(=O)NCCNS(C)(=O)=O)O2` (centres unmarked) [Q], in experiment [1] (setting [5]), the cytotoxicity at 1.4 µM is approximately 50% and the cytotoxicity at 4.3 µM is less than 10%.
For the compound `Cc1c(C)c2c(c(C)c1O)CCC(C)(C(=O)N(C)Cc1cc[nH]n1)O2` (centres unmarked) [Z], in experiment [1] (setting [5]), the cytotoxicity at 1.4 µM was approximately 22% and the cytotoxicity at 4.3 µM is less than 15%.
Turning to `Cc1c(C)c2c(c(C)c1O)CCC(C)(C(=O)N(C)CCc1cnn(C)c1)O2` (centres unmarked) [J], the cytotoxicity at 0.43 µM in experiment [1] (setting [5]) was less than 10%.
Take `CCN(Cc1ccccn1)C(=O)C1(C)CCc2c(C)c(O)c(C)c(C)c2O1` (centres unmarked) [T]: in experiment [1] (setting [5]), the cytotoxicity at 1.4 µM is less than 10%.
Turning to `Cc1noc(C)c1CNC(=O)C1(C)CCc2c(C)c(O)c(C)c(C)c2O1` (centres unmarked) [M], the cytotoxicity at 0.43 µM in experiment [1] (setting [5]) was less than 10%.
`Cc1c(C)c2c(c(C)c1O)CCC(C)(C(=O)N1CCC(c3ncc[nH]3)CC1)O2` (centres unmarked) [O]: in experiment [1] (setting [5]), the cytotoxicity at 1.4 µM was less than 10%.
With `Cc1c(C)c2c(c(C)c1O)CCC(C)(C(=O)N(C)Cc1n[nH]c(=O)[nH]1)O2` (centres unmarked) [W], the cytotoxicity at 1.4 µM in experiment [1] (setting [5]) is less than 12%.
With `CCN(Cc1noc(COC)n1)C(=O)C1(C)CCc2c(C)c(O)c(C)c(C)c2O1` (centres unmarked) [V], in experiment [1] (setting [5]), the cytotoxicity at 1.4 µM was approximately 30% and the cytotoxicity at 4.3 µM was less than 10%.
As for `Cc1coc(C)c1CN(C)C(=O)C1(C)CCc2c(C)c(O)c(C)c(C)c2O1` (centres unmarked) [X], in experiment [1] (setting [5]), the cytotoxicity at 1.4 µM is approximately 22% and the cytotoxicity at 4.3 µM is less than 16%.
In the case of `Cc1cc2n(n1)CCN(C(=O)C1(C)CCc3c(C)c(O)c(C)c(C)c3O1)C2` (centres unmarked) [N], the cytotoxicity at 1.4 µM in experiment [1] (setting [5]) was less than 10%.
Still for that read-out and setting: the same measure for `Cc1c(C)c2c(c(C)c1O)CCC(C)(C(=O)N1CCOCC1)O2` (centres unmarked) [R]: less than 10%.
Regarding `Cc1c(C)c2c(c(C)c1O)CCC(C)(C(=O)N1CCNC(=O)C1)O2` (centres unmarked) [ZZ], in experiment [1] (setting [5]), the cytotoxicity at 1.4 µM is approximately 23% and the cytotoxicity at 4.3 µM is less than 13%.
Regarding `Cc1c(C)c2c(c(C)c1O)CCC(C)(C)O2` [PMC, 2,2,5,7,8-pentamethyl-6-chromanol, reference compound], the “protection from ox-LDL-induced RPE cell death” value in experiment [1] (0.43 μM, ox-LDL 200 μg/ml (FIG. 6)) is more than 95%. For the same compound, the “relative RPE protective activity compared with other compounds” value in experiment [1] was “significantly more effective; also recorded: significantly more potent than trolox and butylated hydroxyl toluene (BHT)”.
For `Cc1c(C)c2c(c(C)c1O)CCC(C)(C(=O)N1CC(n3cccn3)C1)O2` (centres unmarked) [U], the cytotoxicity at 1.4 µM in experiment [1] (setting [5]) was less than 10%.
As to `O=C(/C=C/c1ccc(O)cc1)c1ccc(O)cc1O` [isoliquiritigenin, reference compound], the “protective effect against ox-LDL-induced RPE cell death” value in experiment [1] (ox-LDL 200 μg/ml (FIG. 6)) is recorded as “only protected RPE cells at high dose”.
Take `Cc1c(C)c2c(c(C)c1O)CCC(C)(C(=O)N(C)Cc1ncon1)O2` (centres unmarked) [K]: in experiment [1] (setting [5]), the cytotoxicity at 1.4 µM was less than 10%.
As for `CC(C)(O)c1coc(S(=O)(=O)NC(=O)Nc2c3c(cc4c2CCC4)CCC3)c1` [MCC950, reference compound], in experiment [1] (ox-LDL 200 μg/ml (FIG. 6)), the “protective effect against ox-LDL-induced RPE cell death” value was “did not have any protective effect”.
As for `Cc1c(C)c2c(c(C)c1O)CCC(C)(C(=O)N(C)Cc1ncc[nH]1)O2` (centres unmarked) [L], the cytotoxicity at 1.4 µM in experiment [1] (setting [5]) was less than 10%.
As to `Cc1c(C)c2c(c(C)c1O)CCC(C)(C(=O)NCCCn1cncn1)O2` (centres unmarked) [S], the cytotoxicity at 4.3 µM in experiment [1] (setting [5]) was less than 10%.
